Source: PMC4264749, “Phlebotomy Treatment for Elimination of Perfluoroalkyl Acids in a Highly Exposed Family: A Retrospective Case-Series” (PLoS ONE, 2014)
Read-outs that look alike come from different tables or passages of the source.

Legend:
[1] = Serum PFAA concentrations in family members during intermittent phlebotomy (HPLC-MS/MS); assay type: in vivo, human; conditions: for Serum concentration before treatment: before phlebotomy
Excerpt: After receiving informed consent, intermittent phlebotomy was undertaken at an overall rate (Table 2) that was equal to or less than the maximum rate of what is done for routine blood donations at the Canadian Blood Services: ∼500 ccs of whole blood every 56 days. Frequency and timing of blood removal was not consistent between family members because of their personal availability, success at each time of venesection, and compliance of each participant. […] Mineral supplementation was discussed and was taken by each participant.
All serum samples were submitted to ALS Laboratories (Edmonton, AB) for quantitative analysis of PFAAs (see Supporting Information, S1 Table). Samples were extracted by solid phase extraction and concentrations of PFHxS, PFOS, and PFOA were determined using high performance liquid chromatography/tandem mass spectrometry. Formic acid (0.1 M) along with a mixture of isotopically labeled PFAAs (Wellington Laboratories, Guelph, Ontario) were added to 1.0 mL of serum. The mixture was vortexed, sonicated, and subjected to solid phase extraction. The extract was concentrated to 100 uL and an instrument performance internal standard was added along with 200 uL of 90% 20 mM aqueous acetic acid/10% methanol. Procedural blanks were run with each set of samples, and method limits of quantification (LOQ) were 0.5 ng/mL for each analyte. For the few PFAA levels that fell below this LOQ (shown as hollow circles in Figs. 1–3), LOQ/√2 (i.e. 0.35 ng/mL) was substituted for purposes of data analysis. PFHxS, PFOS, and PFOA levels in all participating family members were >LOQ throughout the intervention except for 3 PFOS measurements out of 16 total measurements in the 3rd child and one PFOA measurement out of 9 total measurements in the […]. Written informed consent was given by participants (or parents in the case of children) for their clinical records to be used in this study.

[2] = Apparent elimination half-life (HLapp) and phlebotomy efficiency coefficient in treated family members; assay type: in vivo, human; conditions: family members with regular phlebotomy, except parent
Excerpt: To evaluate the effect of phlebotomy, versus the expected rate of intrinsic elimination, we graphically and statistically compared the observed decreasing trends in each family member (fitted to a simple exponential decay model) with reference population elimination kinetics. Specifically, for the reference population of occupationally exposed retirees, we considered: i) the 95% confidence interval of the geometric mean elimination rate for each PFAA, and ii) the fastest individual rate of elimination rate among the reference population. For comparative purposes, the concentration of each PFAA in serum on the first day of the intervention was taken as time zero, and the models were forced through this starting point.
One metric that was calculated to compare the efficiency of the phlebotomy for removal of different PFAAs in each family member was termed the phlebotomy efficiency coefficient (EC). This was based on the subtractive difference between HLapp (yrs) in each treated family member and the geometric mean HLin (yrs) of the reference population according to Equation 1 . [drawing 1] (1)

[3] = parameters: method as in PMID 17805419; conditions: cited from earlier work
[4] = parameters: method as in PMID 23980546; conditions: urinary excretion, China, cited from earlier work
[5] = parameters: method as in earlier work; conditions: 2009–2011; cited from earlier work

O=S(=O)(O)C(F)(F)C(F)(F)C(F)(F)C(F)(F)C(F)(F)C(F)(F)F [PFHxS, Perfluorohexane sulfonate]
Serum concentration before treatment ([1]; 1st Child): 78.6 ng/mL | Serum concentration ([1]; 1st Child, sampling date 2009.10.12): 51.9 ng/mL | Serum concentration ([1]; 1st Child, sampling date 2009.12.24): 40.5 ng/mL | Serum concentration ([1]; 1st Child, sampling date 2009.6.9): 78.6 ng/mL | Serum concentration ([1]; 1st Child, sampling date 2009.9.9): 39.0 ng/mL | Serum concentration ([1]; 1st Child, sampling date 2010.10.14): 51.9 ng/mL | Serum concentration ([1]; 1st Child, sampling date 2010.1.17): 30.3 ng/mL | Serum concentration ([1]; 1st Child, sampling date 2010.2.11): 25.3 ng/mL | Serum concentration ([1]; 1st Child, sampling date 2010.4.14): 29.9 ng/mL | Serum concentration ([1]; 1st Child, sampling date 2011.12.5): 10.0 ng/mL | Serum concentration ([1]; 1st Child, sampling date 2011.5.17, LOD=0.5ng/mL): 31.8 ng/mL | Serum concentration ([1]; 1st Child, sampling date 2011.8.12, LOD=0.5ng/mL): 27.8 ng/mL | Serum concentration ([1]; 1st Child, sampling date 2012.12.28, LOD=0.5ng/mL): 21.7 ng/mL | Serum concentration ([1]; 1st Child, sampling date 2012.4.24): 32.7 ng/mL | Serum concentration ([1]; 1st Child, sampling date 2012.8.21): 25.1 ng/mL | Serum concentration ([1]; 1st Child, sampling date 2013.3.30): 18.1 ng/mL | Serum concentration ([1]; 1st Child, sampling date 2013.7.30): 11.9 ng/mL | Serum concentration before treatment ([1]; 2nd Child): 140 ng/mL | Serum concentration ([1]; 2nd Child, sampling date 2009.10.24): 97.5 ng/mL | Serum concentration ([1]; 2nd Child, sampling date 2009.6.6): 140.0 ng/mL | Serum concentration ([1]; 2nd Child, sampling date 2009.7.2): 124.0 ng/mL | Serum concentration ([1]; 2nd Child, sampling date 2009.7.30): 132.0 ng/mL | Serum concentration ([1]; 2nd Child, sampling date 2009.8.24): 162.0 ng/mL | Serum concentration ([1]; 2nd Child, sampling date 2009.9.27): 67.2 ng/mL | Serum concentration ([1]; 2nd Child, sampling date 2010.1.3): 57.9 ng/mL | Serum concentration ([1]; 2nd Child, sampling date 2010.2.15): 44.7 ng/mL | Serum concentration ([1]; 2nd Child, sampling date 2011.10.2): 47.4 ng/mL | Serum concentration ([1]; 2nd Child, sampling date 2011.12.24): 43.2 ng/mL | Serum concentration ([1]; 2nd Child, sampling date 2011.4.27): 72.3 ng/mL | Serum concentration ([1]; 2nd Child, sampling date 2011.8.14): 63.0 ng/mL | Serum concentration ([1]; 2nd Child, sampling date 2012.12.24): 78.7 ng/mL | Serum concentration ([1]; 2nd Child, sampling date 2012.4.6): 48.3 ng/mL | Serum concentration ([1]; 2nd Child, sampling date 2013.5.11.): 34.8 ng/mL | Serum concentration ([1]; 2nd Child, sampling date 2013.7.15): 27.1 ng/mL | Serum concentration before treatment ([1]; 3rd Child): 293 ng/mL | Serum concentration ([1]; 3rd Child, sampling date 2010.3.12): 168.0 ng/mL | Serum concentration ([1]; 3rd Child, sampling date 2010.5.23): 85.2 ng/mL | Serum concentration ([1]; 3rd Child, sampling date 2011.1.6): 98.7 ng/mL | Serum concentration ([1]; 3rd Child, sampling date 2011.11.26): 31.2 ng/mL | Serum concentration ([1]; 3rd Child, sampling date 2011.2.24): 114.0 ng/mL | Serum concentration ([1]; 3rd Child, sampling date 2011.4.30): 82.8 ng/mL | Serum concentration ([1]; 3rd Child, sampling date 2011.6.13): 92.0 ng/mL | Serum concentration ([1]; 3rd Child, sampling date 2011.9.27): 108.0 ng/mL | Serum concentration ([1]; 3rd Child, sampling date 2012.10.16): 63.9 ng/mL | Serum concentration ([1]; 3rd Child, sampling date 2012.1.8): 51.0 ng/mL | Serum concentration ([1]; 3rd Child, sampling date 2012.12.9): 95.4 ng/mL | Serum concentration ([1]; 3rd Child, sampling date 2012.3.4): 61.5 ng/mL | Serum concentration ([1]; 3rd Child, sampling date 2012.4.28): 110.0 ng/mL | Serum concentration before treatment ([1]; 4th Child): 167 ng/mL | starting serum concentration relative to 95th centile among Canadians ([1]; 4th child (4th child)): ~20 fold | Serum concentration after treatment ([1]; Average of 6 family members, after phlebotomy): 23.3 ng/mL | Serum concentration before treatment ([1]; Average of 6 family members): 125 ng/mL | Serum concentration before treatment ([1]; Parent one): 44.1 ng/mL | Serum concentration ([1]; Parent one, sampling date 2009.10.11): 20.3 ng/mL | Serum concentration ([1]; Parent one, sampling date 2009.10.12): 25.0 ng/mL | Serum concentration ([1]; Parent one, sampling date 2009.11.12): 29.5 ng/mL | Serum concentration ([1]; Parent one, sampling date 2009.12.14): 35.4 ng/mL | Serum concentration ([1]; Parent one, sampling date 2009.2.2): 44.1 ng/mL | Serum concentration ([1]; Parent one, sampling date 2009.5.18): 35.0 ng/mL | Serum concentration ([1]; Parent one, sampling date 2009.6.1): 41.7 ng/mL | Serum concentration ([1]; Parent one, sampling date 2009.7.4): 26.8 ng/mL | Serum concentration ([1]; Parent one, sampling date 2009.9.1): 43.5 ng/mL | Serum concentration ([1]; Parent one, sampling date 2010.10.10): 22.4 ng/mL | Serum concentration ([1]; Parent one, sampling date 2010.1.17): 34.5 ng/mL | Serum concentration ([1]; Parent one, sampling date 2010.3.13): 21.2 ng/mL | Serum concentration ([1]; Parent one, sampling date 2011.1.6): 19.2 ng/mL | Serum concentration ([1]; Parent one, sampling date 2011.11.26): 8.7 ng/mL | Serum concentration ([1]; Parent one, sampling date 2011.2.24): 13.1 ng/mL | Serum concentration ([1]; Parent one, sampling date 2011.4.30): 18.8 ng/mL | Serum concentration ([1]; Parent one, sampling date 2011.6.22): 16.9 ng/mL | Serum concentration ([1]; Parent one, sampling date 2011.8.4): 18.0 ng/mL | Serum concentration ([1]; Parent one, sampling date 2011.9.27): 25.7 ng/mL | Serum concentration ([1]; Parent one, sampling date 2012..12.28): 17.4 ng/mL | Serum concentration ([1]; Parent one, sampling date 2012.1.14): 21.5 ng/mL | Serum concentration ([1]; Parent one, sampling date 2012.11.1): 19.1 ng/mL | Serum concentration ([1]; Parent one, sampling date 2012.3.4): 19.5 ng/mL | Serum concentration ([1]; Parent one, sampling date 2012.4.29): 23.1 ng/mL | Serum concentration ([1]; Parent one, sampling date 2012.7.8): 18.3 ng/mL | Serum concentration ([1]; Parent one, sampling date 2012.8.21): 21.7 ng/mL | Serum concentration ([1]; Parent one, sampling date 2013.10.27): 8.8 ng/mL | Serum concentration ([1]; Parent one, sampling date 2013.2.18): 15.7 ng/mL | Serum concentration ([1]; Parent one, sampling date 2013.3.30): 16.0 ng/mL | Serum concentration ([1]; Parent one, sampling date 2013.5.11): 13.1 ng/mL | Serum concentration ([1]; Parent one, sampling date 2013.7.15): 7.8 ng/mL | Serum concentration ([1]; Parent one, sampling date 2013.9.8): 18.2 ng/mL | Serum concentration before treatment ([1]; Parent two): 29.3 ng/mL | Serum concentration ([1]; Parent two, sampling date 2009.6.1): 29.3 ng/mL | Serum concentration ([1]; Parent two, sampling date 2009.7.7): 21.3 ng/mL | Serum concentration ([1]; Parent two, sampling date 2009.8.24): 19.5 ng/mL | Serum concentration ([1]; Parent two, sampling date 2010.1.3): 16.3 ng/mL | Serum concentration ([1]; Parent two, sampling date 2010.4.11, LOD=0.5ng/mL): 17.8 ng/mL | Serum concentration ([1]; Parent two, sampling date 2012.3.13): 16.1 ng/mL | Serum concentration ([1]; Parent two, sampling date 2013.1.1): 13.2 ng/mL | Serum concentration ([1]; Parent two, sampling date 2013.10.6): 13.5 ng/mL | Serum concentration ([1]; Parent two, sampling date 2013.6.22): 9.1 ng/mL | HLapp compared with geometric mean HLin of reference population [2]: significantly shorter | HLin of fastest eliminator in the reference population ([3]; reference population of occupationally exposed retirees (26 individuals)): 2.2 yrs | 95% confidence interval of the geometric mean HLin ([3]; reference population of occupationally exposed retirees): 5.8–9.2 yrs | intrinsic human elimination half-life (HLin) ([3]; serum, highly contaminated retirees >55 yrs, previously occupationally exposed): 8.5 years | HLin, 95% confidence interval ([3]; serum, retirees >55 yrs, previously occupationally exposed): 6.4–10.6 yrs | HLapp ([4]; males and post-menopausal females): 35 years | HLapp ([4]; reproductive-aged females): 7.7 years | 95th percentile of serum concentration among Canadians [5]: 8.9 ng/mL
